Tests used:
BRD4 (BDI_K57-E168) = BRD4 (BDI_K57-E168) (Homo sapiens (Human), UniProt O60885); assay: TR-FRET bromodomain binding assay, BRD4 BDI; conditions: mean Ki, calculated from IC50, probe Kd and probe concentration
Procedure, shortened: (§1)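 His-tagged BRD4 BDI (12 nM, with 100 nM Alexa647 BET-inhibitor probe) or BDII (4 nM, 30 nM probe), plus 1 nM Eu-anti-His antibody, in pH 6.0 phosphate buffer with 2% DMSO. Equilibrated 1 h at room temperature and read by TR-FRET. IC50 from a 4-parameter fit was converted to Ki using probe Kd and probe concentration.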

BRD4 (BDII_E352-M457) = BRD4 (BDII_E352-M457) (Homo sapiens (Human), UniProt O60885); assay: TR-FRET bromodomain binding assay, BRD4 BDII; conditions: mean Ki, calculated from IC50, probe Kd and probe concentration
Procedure, shortened: as §1

[1] = Fourteen day rat toxicology study, maximum tolerated exposure; conditions: for AUC at 14 day: po
Method: Compounds were dosed orally once daily, in Sprague-Dawley rats.

[2] = tested on: LNCaP-FGC xenograft tumors; assay: Xenograft tumor growth inhibition assay, LNCaP (prostate); format: in vivo, Male NSG mice; conditions: mouse LNCaP xenograft, oral
Method: (§2) The effect of compound of Example 32, 35 and Compound X to inhibit the growth of SKM-1_FP1 and LNCaP-FGC xenograft tumors was evaluated. Female SCID Beige mice (Charles River) were utilized for the SKM-1_FP1 flank xenograft model. Male NSG mice (JAX Labs) were used for the LNCaP-FGC study. Cells were suspended in PBS, mixed with Matrigel (phenol red free, Becton Dickinson Biosciences Discovery Labware) in a ratio of 1:4 (V/V) and inoculated subcutaneously into the flank (five million cells per site) of the mice. Inoculated mice were randomized into groups and treatment was initiated when mean tumor volume was 0.2-0.25 cm^3. The compounds were administered orally in (volume %): 1.5% DMSO, 30% PEG 400, and 68.5% Phosol 53 MCT. Tumor growth in the flank was assessed by measuring tumor size with calipers and calculating volume using the formula (L×W^2/2). Study groups were terminated prior to tumor volume reaching 3 cm^3. Inhibition of tumor growth was assessed at the time the vehicle-treated group was terminated by calculating the ratio of the mean volume of the test drug group to the mean volume of the untreated (control) group (T/C) and calculating percent tumor growth inhibition (% TGI).

[3] = as above; format: in vivo, Male NSG mice; conditions: male, NSG, in vivo, mouse LNCaP xenograft, oral, read-out: AUC, mouse efficacy, Prostate (LNCaP)
Method: as §2

[4] = Xenograft tumor growth inhibition assay, SKM-1 (AML); format: in vivo, Female SCID Beige mice; conditions: female, SCID Beige, in vivo, mouse SKM-1 xenograft, oral, read-out: AUC, mouse efficacy, AML (SKM-1)
[5] = tested on: SKM-1_FP1 xenograft tumors; assay: as above; format: in vivo, Female SCID Beige mice; conditions: mouse SKM-1 xenograft, oral
[6] = Sprague-Dawley, rat, in vivo, 14 day
[7] = Sprague-Dawley, rat, in vivo, 30 mg/kg

**Q.** Which Ki (BRD4 (BDI_K57-E168)) does the source give for `CCS(=O)(=O)Nc1ccc(Oc2ccc(F)cc2F)c(-c2cn(C)c(=O)c3[nH]ccc23)c1` [Compound X, N-[4-(2,4-difluorophenoxy)-3-(6-methyl-7-oxo-6,7-dihydro-1H-pyrrolo[2,3-c]pyridin-4-yl)phenyl]ethanesulfonamide, reference compound] here?
**A.** 0.00209 µM

**Q.** And the Ki (BRD4 (BDII_E352-M457))?
**A.** 0.000952 µM

**Q.** What about the AUC at 14 day ([1]; Sprague-Dawley, rat, in vivo, 1 mg/kg) of the same compound?
**A.** 0.725 µg·h/mL

**Q.** And the “AUC ratio (rat maximum tolerated exposure/mouse efficacious exposure) Prostate (LNCaP)” value ([1]; exposure margin versus mouse LNCaP xenograft)?
**A.** 0.6x

**Q.** And the “AUC ratio (rat maximum tolerated exposure/mouse efficacious exposure) AML (SKM-1)” value ([1]; exposure margin versus mouse SKM-1 xenograft)?
**A.** 0.6x

**Q.** And the “% TGI, Prostate (LNCaP)” value ([2]; dose 1 mg/kg)?
**A.** 64%

**Q.** And the AUC ([3]; dose 1 mg/kg)?
**A.** 1.2 µg·h/mL

**Q.** What about the AUC ([4]; dose 1 mg/kg) of the same compound?
**A.** 1.2 µg·h/mL

**Q.** And the “% TGI, AML (SKM-1)” value ([5]; dose 1 mg/kg)?
**A.** 76%

**Q.** Which results are given for `Cc1cccc(C)c1Oc1ccc(C(C)(C)O)cc1-c1cn(C)c(=O)c2[nH]c(C(=O)NC(C)(C)C)cc12` [Example 32, N-tert-butyl-4-[2-(2,6-dimethylphenoxy)-5-(2-hydroxypropan-2-yl)phenyl]-6-methyl-7-oxo-6,7-dihydro-1H-pyrrolo[2,3-c]pyridine-2-carboxamide]?
**A.** Ki (BRD4 (BDI_K57-E168)): 0.599 µM; Ki (BRD4 (BDII_E352-M457)): 0.0028 µM; AUC ratio (rat maximum tolerated exposure/mouse efficacious exposure) AML (SKM-1) [1, 6]: 14x; AUC ratio (rat maximum tolerated exposure/mouse efficacious exposure) Prostate (LNCaP) [1, 6]: 5.5x; AUC at 14 day [1, 7]: 69.2 µg·h/mL; % TGI, Prostate (LNCaP) ([2]; dose 30 mg/kg): 60%; AUC ([3]; dose 30 mg/kg): 12.6 µg·h/mL; AUC ([4]; dose 9.4 mg/kg): 5 µg·h/mL; % TGI, AML (SKM-1) ([5]; dose 9.4 mg/kg): 76%

**Q.** Which results are given for `CCNC(=O)c1cc2c(-c3cc(C(C)(C)O)ccc3Oc3c(C)cc(F)cc3C)cn(C)c(=O)c2[nH]1` [Example 35, N-ethyl-4-[2-(4-fluoro-2,6-dimethylphenoxy)-5-(2-hydroxypropan-2-yl)phenyl]-6-methyl-7-oxo-6,7-dihydro-1H-pyrrolo[2,3-c]pyridine-2-carboxamide]?
**A.** AUC at 14 day [1, 7]: 27.5 µg·h/mL; % TGI, Prostate (LNCaP) ([2]; dose 4.7 mg/kg): 64%; AUC ([3]; dose 4.7 mg/kg): 1.1 µg·h/mL; AUC ([4]; dose 4.7 mg/kg): 0.84 µg·h/mL; % TGI, AML (SKM-1) ([5]; dose 4.7 mg/kg): 74%

**Q.** For `Cc1cccc(C(F)(F)F)c1Oc1ccc(C(C)(O)CO)cc1-c1cn(C)c(=O)c2[nH]c(C(=O)NC(C)(C)C)cc12` (stereo not shown) [Example 127, N-tert-butyl-4-{5-(1,2-dihydroxypropan-2-yl)-2-[2-methyl-6-(trifluoromethyl)phenoxy]phenyl}-6-methyl-7-oxo-6,7-dihydro-1H-pyrrolo[2,3-c]pyridine-2-carboxamide], which Ki (BRD4 (BDI_K57-E168)) is on record?
**A.** 6.58 µM

**Q.** And the Ki (BRD4 (BDII_E352-M457))?
**A.** 0.0205 µM

**Q.** With `CCNC(=O)c1cc2c(-c3cc(C(C)(O)CCCO)ccc3Oc3c(C)cc(F)cc3C)cn(C)c(=O)c2[nH]1` (stereo not shown) [Example 128, 4-[5-(2,5-dihydroxypentan-2-yl)-2-(4-fluoro-2,6-dimethylphenoxy)phenyl]-N-ethyl-6-methyl-7-oxo-6,7-dihydro-1H-pyrrolo[2,3-c]pyridine-2-carboxamide] as the compound, how does the Ki (BRD4 (BDI_K57-E168)) read?
**A.** 0.469 µM

**Q.** And the Ki (BRD4 (BDII_E352-M457))?
**A.** 0.0013 µM

**Q.** Which Ki (BRD4 (BDI_K57-E168)) does the source give for `CCNC(=O)c1cc2c(-c3cc(C4(O)CCOCC4)ccc3Oc3c(C)cc(F)cc3C)cn(C)c(=O)c2[nH]1` [Example 129, N-ethyl-4-[2-(4-fluoro-2,6-dimethylphenoxy)-5-(4-hydroxyoxan-4-yl)phenyl]-6-methyl-7-oxo-6,7-dihydro-1H-pyrrolo[2,3-c]pyridine-2-carboxamide] here?
**A.** 0.649 µM

**Q.** And the Ki (BRD4 (BDII_E352-M457))?
**A.** 0.0023 µM

**Q.** For “N-tert-butyl-4-[2-(2,6-dimethylphenoxy)-5-(2-hydroxypropan-2-yl)pyridin-3-yl]-6-methyl-7-oxo-6,7-dihydro-1H-pyrrolo[2,3-c]pyridine-2-carboxamide [Example 50]”, which Ki (BRD4 (BDI_K57-E168)) is on record?
**A.** 0.318 µM

**Q.** What about the Ki (BRD4 (BDII_E352-M457)) of the same compound?
**A.** 0.0013 µM

Reference: US10633379B2, “Bromodomain inhibitors” (AbbVie Inc., priority 2016, dated 2020)
